Experimental data published in ChEMBL document CHEMBL1154501, “2/4-Substituted-9-fluorenones and their O-glucosides as potential immunomodulators and anti-herpes simplex virus-2 agents. Part 5” (Eur J Med Chem, 2008).

Legend:
[1] = tested on: PBMC; assay: Induction of TNFalpha release in human PBMC at 20 ug/mL after 24 hrs by ELISA; format: functional
[2] = tested on: PBMC; assay: Cytotoxicity against human PBMC at 40 ug/mL after 48 hrs by MTT assay; format: cell-based
[3] = tested on: PBMC; assay: Cytotoxicity against human PBMC at 20 ug/mL after 48 hrs by MTT assay; format: cell-based
[4] = tested on: PBMC; assay: Induction of TNFalpha release in human PBMC at 20 ug/mL after 48 hrs by ELISA; format: functional
[5] = tested on: PBMC; assay: Induction of IFNalpha release in human PBMC at 20 ug/mL after 48 hrs by ELISA; format: functional
[6] = tested on: PBMC; assay: Induction of IFNalpha release in human PBMC at 20 ug/mL after 24 hrs by ELISA; format: functional
[7] = tested on: PBMC; assay: Cytotoxicity against human PBMC at 60 ug/mL after 48 hrs by MTT assay; format: cell-based
[8] = tested on: Human alphaherpesvirus 2; assay: Antiviral activity against HSV2 in human PBMC assessed as inhibition of viral replication at 20 ug/mL; format: functional
[9] = tested on: PBMC; assay: Induction of IFNalpha release in human PBMC at 40 ug/mL after 24 hrs by ELISA; format: functional
[10] = tested on: PBMC; assay: Induction of IFNalpha release in human PBMC at 40 ug/mL after 48 hrs by ELISA; format: functional
[11] = tested on: PBMC; assay: Induction of TNFalpha release in human PBMC at 40 ug/mL after 48 hrs by ELISA; format: functional
[12] = tested on: PBMC; assay: Induction of TNFalpha release in human PBMC at 40 ug/mL after 24 hrs by ELISA; format: functional
[13] = tested on: Human alphaherpesvirus 2; assay: Antiviral activity against HSV2 in human PBMC assessed as inhibition of viral replication at 40 ug/mL; format: functional

Row | SMILES | Activity [1] [pg/mL] | Activity [2] [%] | Activity [3] [%] | Activity [4] [pg/mL] | Activity [5] [pg/mL] | Activity [6] [pg/mL] | Activity [7] [%] | PFU/ml [8] | Activity [9] [pg/mL] | Activity [10] [pg/mL] | Activity [11] [pg/mL] | Activity [12] [pg/mL] | PFU/ml [13]
1 | O=C(OCCCCO[C@H]1O[C@H](CO[C@H]2O[C@H](CO[C@H]3O[C@H](CO)[C@@H](O)[C@H](O)[C@H]3O)[C@@H](O)[C@H](O)[C@H]2O)[C@@H](O)[C@H](O)[C@H]1O)c1cccc2c1-c1ccccc1C2=O | <5.8 | 19 | 0 | 9 | 14 | <4.8 | 42 | 70000 | – | – | – | – | –
2 | O=C(OCCCCO[C@@H]1O[C@H](CO)[C@@H](O[C@H]2O[C@H](CO)[C@@H](O)[C@H](O)[C@H]2O)[C@H](O)[C@H]1O)c1cccc2c1-c1ccccc1C2=O | – | 37 | 26 | – | – | – | 69 | – | – | – | – | – | –
3 | O=C(NCCO)c1ccc2c(c1)C(=O)c1ccccc1-2 | <5.8 | 0 | 0 | 13 | 11 | <4.8 | 2 | 48000 | 9 | 29 | 36 | 14 | 37000
4 | O=C(OCCO)c1cccc2c1-c1ccccc1C2=O | <5.8 | 6 | 0 | 21 | 16 | <4.8 | 14 | 58000 | – | – | – | – | –
5 | O=C(OCCCO)c1cccc2c1-c1ccccc1C2=O | <5.8 | 22 | 0 | 11 | 8 | <4.8 | 41 | 60000 | – | – | – | – | –
6 | O=C(OCCCCO)c1cccc2c1-c1ccccc1C2=O | <5.8 | 21 | 0 | 6 | 12 | <4.8 | 38 | 71000 | – | – | – | – | –
7 | O=C(OCCCCO[C@H]1O[C@H](CO)[C@@H](O)[C@H](O)[C@H]1O)c1cccc2c1-c1ccccc1C2=O | – | 38 | 22 | – | – | – | 57 | – | – | – | – | – | –
8 | O=C(OCCCCO[C@@H]1O[C@H](CO)[C@@H](O)[C@H](O)[C@H]1O)c1cccc2c1-c1ccccc1C2=O | <5.8 | 0 | 0 | 18 | 10 | <4.8 | 7 | 78000 | <4.8 | 29 | 30 | <5.8 | 36000
9 | O=C(NCCCCO)c1ccc2c(c1)C(=O)c1ccccc1-2 | – | 28 | 20 | – | – | – | 45 | – | – | – | – | – | –
10 | O=C(NCCCO)c1ccc2c(c1)C(=O)c1ccccc1-2 | <5.8 | 0 | 0 | 40 | 7 | <4.8 | 15 | 6500 | 13 | 37 | 51 | 27 | 4100
11 | O=C(NCCOCCO)c1ccc2c(c1)C(=O)c1ccccc1-2 | <5.8 | 0 | 0 | 17 | 21 | <4.8 | 4 | 5300 | 6 | 38 | 48 | 24 | 3900
12 | CC(O)CNC(=O)c1ccc2c(c1)C(=O)c1ccccc1-2 (stereo unspecified) | <5.8 | 0 | 0 | 20 | 18 | <4.8 | 5 | 6000 | 21 | 45 | 33 | 14 | 3500
13 | O=C(NCCOCCO[C@H]1O[C@H](CO)[C@@H](O)[C@H](O)[C@H]1O)c1ccc2c(c1)C(=O)c1ccccc1-2 | <5.8 | 0 | 0 | 14 | 17 | <4.8 | 16 | 60000 | <4.8 | 31 | 30 | <5.8 | 34000
14 | O=C(OCCCCO[C@@H]1O[C@H](CO[C@H]2O[C@H](CO)[C@@H](O)[C@H](O)[C@H]2O)[C@@H](O)[C@H](O)[C@H]1O)c1cccc2c1-c1ccccc1C2=O | <5.8 | 29 | 0 | 15 | 9 | <4.8 | 52 | 68000 | – | – | – | – | –
15 | O=C(NCCOCCO[C@@H]1O[C@H](CO)[C@@H](O[C@H]2O[C@H](CO)[C@@H](O)[C@H](O)[C@H]2O)[C@H](O)[C@H]1O)c1ccc2c(c1)C(=O)c1ccccc1-2 | <5.8 | 0 | 0 | 18 | 10 | <4.8 | 18 | 53000 | <4.8 | 30 | 27 | <5.8 | 32000
16 | O=C(NCCOCCO[C@@H]1O[C@H](CO)[C@@H](O)[C@H](O)[C@H]1O)c1ccc2c(c1)C(=O)c1ccccc1-2 | 9 | 0 | 0 | 31 | 17 | <4.8 | 6 | 49000 | 8 | 31 | 39 | 13 | 36000
17 | O=C(NCCOCCOC1O[C@H](COC2O[C@H](CO)[C@@H](O)[C@H](O)[C@H]2O)[C@@H](O)[C@H](O)[C@H]1O)c1ccc2c(c1)C(=O)c1ccccc1-2 (single isomer, unassigned) | <5.8 | 0 | 0 | 16 | 14 | <4.8 | 21 | 42000 | <4.8 | 25 | 21 | <5.8 | 35000
